Consider one molecule from US11573281B2, “Magnetic resonance fingerprinting method for recordings with a contrast agent” (Bayer Aktiengesellschaft, priority 2018, dated 2023).

Read-outs that look alike come from different tables or passages of the source.

The conditions of data set [1]: Water, Rohrer et al., cited from earlier work.
Data set [2] is described as follows: molar relaxivity of Gd-EOB-DTPA in liver tissue. The data set is classed as physicochemical. The note with it: for molar relaxivity: Liver tissue.
Data set [3] can be described thus: molar relaxivity of Gd-EOB-DTPA in blood. The data set is classed as physicochemical.
For data set [4] the following is noted: Blood, cited from earlier work.
Data set [5] is described as follows: molar relaxivity of Gd-EOB-DTPA in plasma. The data set is classed as physicochemical. The note with it: plasma vs bile.
Data set [6] in a line: molar relaxivity of Gd-EOB-DTPA in bile. The data set is classed as physicochemical.
Data set [7] is described as follows: molar relaxivity of Gd-EOB-DTPA in urine. The data set is classed as physicochemical.
For data set [8] the following is noted: Plasma, Rohrer et al., cited from earlier work.
The conditions of data set [9]: Liver tissue, 0.47 T; Schuhmann-Giampieri et al.; cited from earlier work.

Take `CCOc1ccc(CC(CN(CCN(CC(=O)[O-])CC(=O)[O-])CC(=O)[O-])N(CC(=O)[O-])CC(=O)[O-])cc1.[Gd+3].[Na+].[Na+]` (centres unmarked) [Gd-EOB-DTPA, gadolinium ethoxybenzyl diethylenetriaminepentaacetic acid]: the molar relaxivity was 5.3^(1) (s·mmol/L)^−1 in [1] (0.47 T); 4.7^(1) (s·mmol/L)^−1 in data set [1] (1.5 T); 4.3^(1) (s·mmol/L)^−1 in [1] (3 T); 14.0 ± 2.8 (s·mmol/L)^−1 in data set [2] (1.41 T); 16.4 ± 3.1 (s·mmol/L)^−1 in data set [2] (1.5 T); 13.4 ± 4.0 (s·mmol/L)^−1 in data set [2] (3 T). The molar relaxivity in data set [3] (1.41 T) is given as 8.1 ± 0.2 (s·mmol/L)^−1; in data set [3] (1.5 T), 8.3 ± 0.3 (s·mmol/L)^−1; in [3] (3 T), 7.2 ± 0.1 (s·mmol/L)^−1; in data set [4] (0.47 T, Schuhmann-Giampieri et al.) it was 11.0^(2) (s·mmol/L)^−1; in data set [4] (1.5 T, Rohrer et al.), 7.3 (s·mmol/L)^−1; in [6] (1.41 T), 5.6 ± 0.3 (s·mmol/L)^−1. For the same molecule, the molar relaxivity is 5.6 ± 0.4 (s·mmol/L)^−1 in data set [6] (1.5 T); 5.6 ± 0.3 (s·mmol/L)^−1 in data set [6] (3 T); 5.5 ± 0.1 (s·mmol/L)^−1 in data set [7] (1.41 T); 5.5 ± 0.2 (s·mmol/L)^−1 in data set [7] (1.5 T); 5.6 ± 0.1 (s·mmol/L)^−1 in data set [7] (3 T); 8.7^(1) (s·mmol/L)^−1 in data set [8] (0.47 T). Further, the molar relaxivity in [8] (1.5 T) is on record as 6.9^(1) (s·mmol/L)^−1; in [8] (3 T), 6.2^(1) (s·mmol/L)^−1; in data set [9] it was 16.6^(2) (s·mmol/L)^−1. Besides, the “molar relaxivity in liver cells (hepatocytes) compared with plasma” value in [2] (liver cells (hepatocytes) vs plasma) is given as “significantly higher”. In data set [5], the “molar relaxivity in plasma compared with bile” value was “significantly higher”.
